Measurements as given in ChEMBL document CHEMBL3632469, “Discovery of dihydroquinazolinone derivatives as potent, selective, and CNS-penetrant M(1) and M(4) muscarinic acetylcholine receptors agonists” (Bioorg Med Chem Lett, 2015).

Assays:
Type in all cases: functional, cell-based
[1] = molecular target: T1, Muscarinic acetylcholine receptor M1 (Homo sapiens) (UniProt P11229); assay: Agonist activity at human muscarinic M1 acetylcholine receptor expressed in CHO cells assessed as calcium mobilization at 0.3 uM by FLIPR assay
T1 sequence (whole entry): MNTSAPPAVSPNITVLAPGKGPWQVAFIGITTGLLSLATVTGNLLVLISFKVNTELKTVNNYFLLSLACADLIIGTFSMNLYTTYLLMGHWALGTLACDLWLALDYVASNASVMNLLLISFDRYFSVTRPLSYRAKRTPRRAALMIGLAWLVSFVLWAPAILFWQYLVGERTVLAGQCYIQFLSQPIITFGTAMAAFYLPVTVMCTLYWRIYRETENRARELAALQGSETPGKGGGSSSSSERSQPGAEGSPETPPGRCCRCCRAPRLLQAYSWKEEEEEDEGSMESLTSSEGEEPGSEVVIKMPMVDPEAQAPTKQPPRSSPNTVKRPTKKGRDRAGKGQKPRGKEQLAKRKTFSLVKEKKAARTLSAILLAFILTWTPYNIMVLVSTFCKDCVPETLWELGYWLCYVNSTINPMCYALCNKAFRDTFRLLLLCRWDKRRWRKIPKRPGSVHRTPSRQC

[2] = molecular target: T2, Muscarinic acetylcholine receptor M2 (Homo sapiens) (UniProt P08172); assay: Agonist activity at human muscarinic M2 acetylcholine receptor expressed in CHO cells co-expressing Galpha16 assessed as calcium mobilization at 0.3 uM by FLIPR assay
T2 sequence (whole entry): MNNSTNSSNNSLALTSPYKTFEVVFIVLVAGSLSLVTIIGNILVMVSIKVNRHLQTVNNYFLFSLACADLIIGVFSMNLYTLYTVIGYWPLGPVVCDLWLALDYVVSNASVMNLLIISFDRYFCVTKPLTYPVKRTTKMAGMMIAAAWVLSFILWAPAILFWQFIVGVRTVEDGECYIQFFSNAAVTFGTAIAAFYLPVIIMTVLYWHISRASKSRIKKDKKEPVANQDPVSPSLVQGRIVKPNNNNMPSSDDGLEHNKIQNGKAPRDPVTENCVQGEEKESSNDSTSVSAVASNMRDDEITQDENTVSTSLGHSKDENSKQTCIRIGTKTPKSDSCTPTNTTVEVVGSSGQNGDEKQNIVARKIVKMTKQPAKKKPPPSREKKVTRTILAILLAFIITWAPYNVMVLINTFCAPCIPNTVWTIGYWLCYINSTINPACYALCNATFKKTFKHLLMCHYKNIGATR

[3] = molecular target: Muscarinic acetylcholine receptor M3 (Homo sapiens) (UniProt P20309); assay: Agonist activity at human muscarinic M3 acetylcholine receptor expressed in CHO cells assessed as calcium mobilization at 0.3 uM by FLIPR assay
Sequence of Muscarinic acetylcholine receptor M3 (Homo sapiens) (P20309 whole entry, looked up): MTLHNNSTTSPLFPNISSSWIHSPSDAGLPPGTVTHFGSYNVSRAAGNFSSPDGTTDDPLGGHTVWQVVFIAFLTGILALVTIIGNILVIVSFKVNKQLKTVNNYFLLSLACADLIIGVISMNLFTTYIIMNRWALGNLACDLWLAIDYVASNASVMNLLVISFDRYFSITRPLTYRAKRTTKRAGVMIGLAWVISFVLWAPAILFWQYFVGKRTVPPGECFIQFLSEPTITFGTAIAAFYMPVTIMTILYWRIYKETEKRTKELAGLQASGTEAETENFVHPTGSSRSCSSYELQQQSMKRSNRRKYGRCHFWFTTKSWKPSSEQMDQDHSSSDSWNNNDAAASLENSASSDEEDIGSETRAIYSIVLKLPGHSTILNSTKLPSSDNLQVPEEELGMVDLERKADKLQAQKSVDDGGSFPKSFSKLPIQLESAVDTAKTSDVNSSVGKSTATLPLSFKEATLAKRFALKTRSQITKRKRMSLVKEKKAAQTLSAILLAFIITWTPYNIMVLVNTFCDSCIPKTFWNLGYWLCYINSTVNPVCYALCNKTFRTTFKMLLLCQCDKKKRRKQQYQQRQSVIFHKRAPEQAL

[4] = molecular target: T3, Muscarinic acetylcholine receptor M4 (Homo sapiens) (UniProt P08173); assay: Partial agonist activity at human muscarinic M4 acetylcholine receptor expressed in CHO cells co-expressing Galpha16 assessed as calcium mobilization at 0.3 uM by FLIPR assay
T3 sequence (whole entry): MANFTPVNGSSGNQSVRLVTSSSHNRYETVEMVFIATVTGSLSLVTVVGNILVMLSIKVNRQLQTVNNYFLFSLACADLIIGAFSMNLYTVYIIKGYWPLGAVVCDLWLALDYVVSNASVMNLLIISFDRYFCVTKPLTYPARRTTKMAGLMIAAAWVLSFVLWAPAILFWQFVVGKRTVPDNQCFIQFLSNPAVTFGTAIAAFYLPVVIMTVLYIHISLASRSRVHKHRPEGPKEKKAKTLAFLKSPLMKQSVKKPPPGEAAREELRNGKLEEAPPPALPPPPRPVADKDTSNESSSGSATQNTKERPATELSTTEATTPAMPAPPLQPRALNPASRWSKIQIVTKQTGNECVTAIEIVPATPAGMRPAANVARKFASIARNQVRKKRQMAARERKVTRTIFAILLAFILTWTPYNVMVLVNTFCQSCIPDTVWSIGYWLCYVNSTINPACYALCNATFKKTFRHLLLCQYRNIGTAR

[5] = molecular target: T4, Muscarinic acetylcholine receptor M5 (Homo sapiens) (UniProt P08912); assay: Agonist activity at human muscarinic M5 acetylcholine receptor expressed in CHO cells assessed as calcium mobilization at 10 uM by FLIPR assay
T4 sequence (whole entry): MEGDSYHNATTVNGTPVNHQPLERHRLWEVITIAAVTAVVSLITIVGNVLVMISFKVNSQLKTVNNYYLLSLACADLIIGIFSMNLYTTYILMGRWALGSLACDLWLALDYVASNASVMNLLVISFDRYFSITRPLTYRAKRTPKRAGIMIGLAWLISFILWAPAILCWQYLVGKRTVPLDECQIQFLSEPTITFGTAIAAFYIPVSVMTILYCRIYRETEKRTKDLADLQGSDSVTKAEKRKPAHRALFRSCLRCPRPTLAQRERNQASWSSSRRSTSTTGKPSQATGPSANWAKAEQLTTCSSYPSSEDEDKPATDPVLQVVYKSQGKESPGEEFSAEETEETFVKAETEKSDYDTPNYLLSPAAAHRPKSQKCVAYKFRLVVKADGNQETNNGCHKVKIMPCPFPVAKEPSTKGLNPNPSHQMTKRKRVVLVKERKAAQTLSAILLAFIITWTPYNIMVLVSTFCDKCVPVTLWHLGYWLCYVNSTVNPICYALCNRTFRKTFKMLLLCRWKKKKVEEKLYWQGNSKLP

[6] = molecular target: T3, Muscarinic acetylcholine receptor M4 (Homo sapiens); assay: Partial agonist activity at human muscarinic M4 acetylcholine receptor expressed in CHO cells co-expressing Galpha16 assessed as calcium mobilization at 30 uM by FLIPR assay

Compound	Activity [1] [%]	Activity [2] [%]	Activity [3] [%]	Activity [4] [%]	Activity [5] [%]	Activity [6] [%]
CCOC(=O)N1CCC(CN2CC[C@@H](N3Cc4ccccc4NC3=O)C2)CC1	95	53	2	91	3	
CCOC(=O)N1CCC(CN2CCC(N3Cc4ccccc4NC3=O)CC2)CC1	82	39	7	66		
CCOC(=O)N1CCC(CN2CC(N3Cc4ccccc4NC3=O)C2)CC1	105	17	1	115		

Next, values leading:

Activity [1] [%]	Activity [2] [%]	Activity [3] [%]	Activity [4] [%]	Activity [5] [%]	Activity [6] [%]	Compound
86	66	21	114	31		CCOC(=O)N1CCC(N2CCC(N3Cc4ccccc4NC3=O)CC2)CC1
62	2	3	30			CCOC(=O)N1CCC(CN2CC[C@H](N3Cc4ccccc4NC3=O)C2)CC1
87	12	1	64		65	CCOC(=O)N1[C@@H]2CC[C@H]1C[C@H](CN1CC(N3Cc4ccccc4NC3=O)C1)C2
